Results on 51 compounds are retold here after PMC3264552, “Expression in Antennae and Reproductive Organs Suggests a Dual Role of an Odorant-Binding Protein in Two Sibling Helicoverpa Species” (PLoS ONE, 2012).

The target in test [1] is T1, recombinant HarmOBP10 (Helicoverpa armigera, UniProt G9I573). The experiment in a line: Competitive fluorescence binding assay (displacement of 1-NPN from HarmOBP10). Conditions: for activity at 6 µM / activity at 16 µM / activity at 1.6 µM: read-out: % at max (percent of fluorescence measured at the maximum concentration); for quality as ligand of OBP10, in words: authors' comment on Table 1; for activity at 1.6 µM: max conc 1.6 (titration 0.5–1.6 µM). The method, then:
Emission fluorescence spectra were recorded on a Hitachi F-4500 at 25°C in a right angle configuration, with a 1 cm light path quartz cuvette and 5 nm slits for both excitation and emission. The protein was dissolved in 50 mM Tris-HCl buffer, pH 7.4, while ligands were added as 1 mM methanol solutions.
The probe was excited at 337 nm and emission spectra were recorded between 380 and 450 nm. […] Dissociation constant for 1-NPN and the stoichiometry of binding was obtained processing the data with Prism software.

The target of test [2] is T1, recombinant HarmOBP10. The experiment in a line: Fluorescence binding assay of the probe 1-NPN to recombinant HarmOBP10. The method, then:
Emission fluorescence spectra were recorded on a Hitachi F-4500 at 25°C in a right angle configuration, with a 1 cm light path quartz cuvette and 5 nm slits for both excitation and emission. […]
The probe was excited at 337 nm and emission spectra were recorded between 380 and 450 nm. […] Dissociation constant for 1-NPN and the stoichiometry of binding was obtained processing the data with Prism software. Dissociation constants of the competitors were calculated from the corresponding IC50 values (concentrations of ligands halving the initial fluorescence value of 1-NPN), using the equation: KD = [IC50]/1+[1-NPN]/K1-NPN, [1-NPN] being the free concentration of 1-NPN and K1-NPN being the dissociation constant of the complex protein/1-NPN.

The mark [3] stands for this setting: max conc 6 (titration 0.5–6 µM), protein and 1-NPN both 2 µM, percent of fluorescence without competitor.
Setting [4] is: calculated from IC50: KD = [IC50]/1+[1-NPN]/K1-NPN, read-out: KD (calculated dissociation constant).
Setting [5] is: max conc 16 (titration 2–16 µM), protein and 1-NPN both 2 µM, percent of fluorescence without competitor.
[6] abbreviates: protein and 1-NPN both 2 µM, Tris pH 7.4, unit from method text, not in table, read-out: IC50 (concentration of ligand halving the initial fluorescence value).
Setting [7] is: protein and 1-NPN both 2 µM, percent of fluorescence without competitor.

Where two headings read alike, the source gives them in different places.

T1 sequence (G9I573 entry or part of it): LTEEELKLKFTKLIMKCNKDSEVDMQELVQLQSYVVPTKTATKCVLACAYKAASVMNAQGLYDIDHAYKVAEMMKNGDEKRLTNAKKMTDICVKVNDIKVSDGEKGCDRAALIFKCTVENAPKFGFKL

`CCCCCCCCCCO` [1-Decanol]: the activity at 6 µM at recombinant HarmOBP10 [1] (setting [3]) was 63%.
The same measure, in the same setting: as for `CCCCCCCCCCCCS` [1-Dodecanthiol], the figure is 62%.
For `C=CCCCCCCCCCC` [1-Dodecene], on recombinant HarmOBP10 [1], the IC50 amounted to 6 µM; the Kd came out at 4.7 µM; the “quality as ligand of OBP10, in words” value is recorded as “rather good ligand”; the activity at 6 µM came to 50%.
For `CCCCCCCCCCCCCCCCO` [1-Hexadecanol], the activity at 6 µM on recombinant HarmOBP10 [1] (setting [3]) came to 55%.
`c1ccc(Nc2cccc3ccccc23)cc1` [1-NPN]: on recombinant HarmOBP10 [2] (2 µM protein in 50 mM Tris-HCl, pH 7.4, single binding site, averages of three replicates, read-out: dissociation constant of 1-NPN), the Kd was determined as 5.7 µM. Further, the “effect of pH on affinity of 1-NPN” value at recombinant HarmOBP10 [2] (pH range from 5 to 9.4) is “marked loss of affinity in acidic conditions”.
On to `CCCCCCCCCCCCCCCCCCO` [1-Octadecanol], for which the activity at 6 µM on recombinant HarmOBP10 [1] (setting [3]) was found to be 56%.
On to `CCCCCCCCCCCCCCO` [1-Tetradecanol], for which, on recombinant HarmOBP10 [1], the IC50 was 1.8 µM; the Kd stood at 1.4 µM; the “quality as ligand of OBP10, in words” value was “maximum of affinity”; the activity at 6 µM was found to be 36%.
In the case of `CCCCCCCCCCCCCO` [1-Tridecanol], the activity at 6 µM at recombinant HarmOBP10 [1] (setting [3]) worked out at 85%.
For the compound `CCCCCCCCCCC(C)=O` [2-Dodecanone], at recombinant HarmOBP10 [1] (setting [4]), the Kd is 13.2 µM. The activity at 16 µM at recombinant HarmOBP10 [1] (setting [5]) was 51%.
`Cc1ccc2ccccc2c1` [2-Methylnaphthalene]: the activity at 16 µM at recombinant HarmOBP10 [1] was 75%.
As to `CC(=O)OCCc1ccccc1` [2-Phenylethyl acetate], at recombinant HarmOBP10 [1] (setting [5]), the activity at 16 µM was 77%.
Still for that read-out and setting: then `CCCCCCCCCCCC(C)=O` [2-Tridecanone], with 60%.
Same read-out and setting: as for `CC(=O)OCCC(C)CCCC(C)C` (stereo not shown) [3,7-Dimethyloctyl acetate], the figure is 59%.
`CC(C)CCCC(C)CCOC(=O)c1ccccc1` (stereo not shown) [3,7-Dimethyloctyl benzoate]: the Kd at recombinant HarmOBP10 [1] (setting [4]) is 4.7 µM. Also, on recombinant HarmOBP10 [1] (setting [5]), the activity at 16 µM amounted to 34%. In addition, at recombinant HarmOBP10 [1] (setting [6]), the IC50 is 6 µM.
On to `COc1ccc(-c2ccccc2)cc1` [4-Phenylanisole], for which the activity at 16 µM on recombinant HarmOBP10 [1] (setting [5]) came to 65%.
With `O=C(O)CCCc1ccccc1` [4-Phenylbutyric acid], on recombinant HarmOBP10 [1] (setting [5]), the activity at 16 µM amounted to 73%.
Regarding `CCCCCC/C=C\CCCCCCCCO` [(Z)-9-Hexadecen-1-ol], the activity at 1.6 µM at recombinant HarmOBP10 [1] (setting [7]) turned out to be 65%.
Still for that read-out and setting: then `CCCCCC/C=C\CCCCCCCC=O` [(Z)-9-Hexadecenal], with 73%.
On the same count and under the same terms, as for `CCCC/C=C\CCCCCCCCCCO` [(Z)-11-Hexadecen-1-ol], the figure is 74%.
Still for that read-out and setting: then `CCCC/C=C\CCCCCCCCCC=O` [(Z)-11-Hexadecenal], with 76%.
As to `CCCCOC(=O)c1ccc(C(C)(C)C)cc1` [Butyl p-tert-butylbenzoate], the Kd at recombinant HarmOBP10 [1] (setting [4]) was 10.9 µM. Also, on recombinant HarmOBP10 [1] (setting [5]), the “% at max (percent of fluorescence measured at the maximum concentration)” value came to 48%. Besides, the IC50 at recombinant HarmOBP10 [1] (setting [6]) was determined as 14 µM.
In the case of `O=C(O)/C=C/c1ccccc1` [Cinnamic acid], on recombinant HarmOBP10 [1], the activity at 16 µM was determined as 74%.
The same measure, in the same setting: as for `CC(C)=CCC/C(C)=C/C=O` [Citral], the figure is 66%.
Turning to `CC(C)=CCCC(C)=CC#N` [Citralva], the “% at max (percent of fluorescence measured at the maximum concentration)” value on recombinant HarmOBP10 [1] (setting [5]) worked out at 60%.
Regarding `COc1cc(/C=C/C=O)ccc1O` [Coniferyl aldehyde], at recombinant HarmOBP10 [1], the IC50 was 7.5 µM, the Kd was determined as 5.8 µM and the activity at 16 µM stood at 30%.
For `CC(C=O)Cc1ccc(C(C)C)cc1` (stereo not shown) [Cyclamen aldehyde], the “% at max (percent of fluorescence measured at the maximum concentration)” value at recombinant HarmOBP10 [1] (setting [5]) is recorded as over 100%.
As to `CCCCCCCCCC=O` [Decanal], the activity at 16 µM at recombinant HarmOBP10 [1] (setting [5]) is over 100%.
With `CCCCCCCCCC(=O)O` [Decanoic acid], the activity at 6 µM on recombinant HarmOBP10 [1] (setting [3]) worked out at 62%.
The same measure, in the same setting: then `CCCCCCCCCCCC=O` [Dodecanal], with 73%.
Take `CCCCCCCCCCCCOC(C)=O` [Dodecyl acetate]: the activity at 16 µM on recombinant HarmOBP10 [1] (setting [5]) was over 100%.
In the case of `CCCCCCCCCC(=O)OCC` [Ethyl decanoate], on recombinant HarmOBP10 [1] (setting [4]), the Kd is 4.3 µM. Moreover, at recombinant HarmOBP10 [1] (setting [6]), the IC50 came to 5.5 µM. Moreover, the activity at 6 µM at recombinant HarmOBP10 [1] was 44%.
Consider `CCCCCCCCCCCC(=O)OCC` [Ethyl laurate], for which the activity at 6 µM at recombinant HarmOBP10 [1] (setting [3]) amounted to 70%.
On the same count and under the same terms, then `CCCCCCCCCCCCCC(=O)OCC` [Ethyl myristate], with 73%.
On the same count and under the same terms, then `CCCCCCCCCCCCCCCC(=O)OCC` [Ethyl palmitate], with 69%.
In the case of `C=CCc1ccc(O)c(OC)c1` [Eugenol], the activity at 16 µM on recombinant HarmOBP10 [1] was found to be 80%.
With `CC(C)=CCC/C(C)=C/CC/C(C)=C/CO` [Farnesol], on recombinant HarmOBP10 [1] (setting [4]), the Kd was 5.4 µM. On recombinant HarmOBP10 [1], the activity at 6 µM stood at 54%.
`CC(C)=CCC/C(C)=C/CO` [Geraniol]: the activity at 16 µM on recombinant HarmOBP10 [1] (setting [5]) turned out to be 69%.
Turning to `COc1cc(CC(=O)O)ccc1O` [Homovanillic acid], the activity at 16 µM at recombinant HarmOBP10 [1] worked out at 66%.
In the case of `CC(CC=O)CCCC(C)(C)O` (stereo not shown) [Hydroxycitronellal], the Kd at recombinant HarmOBP10 [1] (setting [4]) is 10.5 µM. The activity at 16 µM at recombinant HarmOBP10 [1] (setting [5]) stood at 48%. For the same compound, on recombinant HarmOBP10 [1] (setting [6]), the IC50 stood at 13.5 µM.
In the case of `CC(CCCC(C)(C)O)CC(=O)O` (stereo not shown) [Hydroxycitronellic acid], the Kd at recombinant HarmOBP10 [1] (setting [4]) is 12.4 µM. The “% at max (percent of fluorescence measured at the maximum concentration)” value on recombinant HarmOBP10 [1] (setting [5]) came to 50%. The IC50 on recombinant HarmOBP10 [1] (setting [6]) was 16 µM.
With `CCCCC/C=C\C/C=C\CCCCCCCC(=O)O` [Linoleic acid], the activity at 6 µM at recombinant HarmOBP10 [1] (setting [3]) amounted to 56%.
`COC(=O)C=Cc1ccccc1` [Methyl cinnamate]: the activity at 16 µM at recombinant HarmOBP10 [1] (setting [5]) was over 100%.
On the same count and under the same terms, then `CCCCCCCCC=O` [Nonanal], with over 100%.
As for `CCCCC/C(C=O)=C/c1ccccc1` [a-Amylcinnamaldehyde], the “quality as ligand of OBP10, in words” value at recombinant HarmOBP10 [1] was “Even better ligands”. Further, the Kd at recombinant HarmOBP10 [1] (setting [4]) was 2.7 µM. At recombinant HarmOBP10 [1] (setting [5]), the “% at max (percent of fluorescence measured at the maximum concentration)” value worked out at 13%. The IC50 on recombinant HarmOBP10 [1] (setting [6]) amounted to 3.5 µM.
In the case of `COC(C=O)=Cc1ccccc1` [a-Methoxycinnamaldehyde], on recombinant HarmOBP10 [1] (setting [4]), the Kd is 9.7 µM. For the same compound, the “% at max (percent of fluorescence measured at the maximum concentration)” value at recombinant HarmOBP10 [1] (setting [5]) was 37%. Further, the IC50 on recombinant HarmOBP10 [1] (setting [6]) is 12.5 µM.
Turning to `CCCCOC(=O)c1ccccc1` [n-Butyl benzoate], the “quality as ligand of OBP10, in words” value on recombinant HarmOBP10 [1] is reported as “poor ligand”. For the same compound, at recombinant HarmOBP10 [1] (setting [5]), the activity at 16 µM was 62%.
`CCCCOC(=O)C=Cc1ccccc1` [n-Butyl cinnamate]: the Kd at recombinant HarmOBP10 [1] (setting [4]) is 9.7 µM. The “% at max (percent of fluorescence measured at the maximum concentration)” value on recombinant HarmOBP10 [1] (setting [5]) stood at 42%. Further, the IC50 at recombinant HarmOBP10 [1] (setting [6]) turned out to be 12.5 µM.
For `CCCCCCOC(=O)c1ccccc1` [n-Hexyl benzoate], the Kd at recombinant HarmOBP10 [1] (setting [4]) was 5.8 µM. Also, on recombinant HarmOBP10 [1] (setting [5]), the “% at max (percent of fluorescence measured at the maximum concentration)” value turned out to be 35%. For the same compound, the IC50 on recombinant HarmOBP10 [1] (setting [6]) is 7.5 µM.
As for `CCCCCCCCOC(=O)c1ccccc1` [n-Octyl benzoate], the “quality as ligand of OBP10, in words” value on recombinant HarmOBP10 [1] is listed as “the best”. On recombinant HarmOBP10 [1] (setting [4]), the Kd was 3.1 µM. The “% at max (percent of fluorescence measured at the maximum concentration)” value on recombinant HarmOBP10 [1] (setting [5]) amounted to 29%. Besides, the IC50 on recombinant HarmOBP10 [1] (setting [6]) amounted to 4 µM.
For the compound `CC(C)c1ccc(C=O)cc1` [p-Isopropylbenzaldehyde], the “% at max (percent of fluorescence measured at the maximum concentration)” value on recombinant HarmOBP10 [1] (setting [5]) was found to be 77%.
As for `CC(C)(C)c1ccc(C(=O)c2ccccc2)cc1` [p-tert-Butylbenzophenone], the “quality as ligand of OBP10, in words” value at recombinant HarmOBP10 [1] was “Even better ligands”. At recombinant HarmOBP10 [1] (setting [4]), the Kd was 2.6 µM. The “% at max (percent of fluorescence measured at the maximum concentration)” value at recombinant HarmOBP10 [1] (setting [5]) amounted to 13%. Besides, the IC50 on recombinant HarmOBP10 [1] (setting [6]) worked out at 3.3 µM.
